# Measurements published in ChEMBL document CHEMBL3044925, “Synthesis of piperazino and morpholino derivatives of aryloxypropane with potential analgesic and possible antimigraine activities” (Med Chem Res, 2011).
# Legend:
# Mus musculus [1] = assay: Neurotoxicity against Mus musculus MFI (mouse) assessed as skeletal muscle incoordination at 90 mg/kg, ip; format: toxicity, organism-based, Muscle tissue; set-up: dose 90 mg/kg, route intraperitoneal; details: in vivo
# Mus musculus [2] = assay: Neurotoxicity against Mus musculus MFI (mouse) assessed as tremors at 90 mg/kg, ip; format: toxicity, organism-based; set-up: dose 90 mg/kg, route intraperitoneal; details: in vivo
# Mus musculus [3] = assay: Neurotoxicity against Mus musculus MFI (mouse) assessed as eye protrusion at 90 mg/kg, ip; format: toxicity, organism-based; set-up: dose 90 mg/kg, route intraperitoneal; details: in vivo
# Mus musculus [4] = assay: Neurotoxicity against Mus musculus MFI (mouse) assessed as tail erection at 90 mg/kg, ip; format: toxicity, organism-based; set-up: dose 90 mg/kg, route intraperitoneal; details: in vivo
# Mus musculus [5] = assay: Neurotoxicity against Mus musculus MFI (mouse) assessed as hair erection at 90 mg/kg, ip; format: toxicity, organism-based; set-up: dose 90 mg/kg, route intraperitoneal; details: in vivo
# Mus musculus [6] = assay: Neurotoxicity against Mus musculus MFI (mouse) assessed as epilepsy at 90 mg/kg, ip; format: toxicity, organism-based; set-up: dose 90 mg/kg, route intraperitoneal; details: in vivo
# Mus musculus [7] = assay: […] activity in Mus musculus MFI (mouse) assessed as inhibition of PBQ-induced writhing at 90 mg/kg, ip administered 1.5 hr prior to PBQ-challenge measured after 10 min relative to aspirin; format: functional; details: route intraperitoneal
# Mus musculus [8] = assay: Neurotoxicity against Mus musculus MFI (mouse) assessed as irritability at 90 mg/kg, ip; format: toxicity, organism-based; set-up: dose 90 mg/kg, route intraperitoneal; details: in vivo
# Mus musculus [9] = assay: Neurotoxicity against Mus musculus MFI (mouse) assessed as muscle twitching at 90 mg/kg, ip; format: toxicity, organism-based, Muscle tissue; set-up: dose 90 mg/kg, route intraperitoneal; details: in vivo
# Mus musculus [10] = assay: Neurotoxicity against Mus musculus MFI (mouse) assessed as effect on respiration at 90 mg/kg, ip; format: toxicity, organism-based; set-up: dose 90 mg/kg, route intraperitoneal; details: in vivo
# Mus musculus [11] = assay: Neurotoxicity against Mus musculus MFI (mouse) assessed as excitation at 90 mg/kg, ip; format: toxicity, organism-based; set-up: dose 90 mg/kg, route intraperitoneal; details: in vivo
# Mus musculus [12] = assay: […] activity in Mus musculus MFI (mouse) assessed as inhibition of PBQ-induced writhing at 50 mg/kg, ip administered 1.5 hr prior to PBQ-challenge measured after 10 min relative to aspirin; format: functional; details: route intraperitoneal
# Mus musculus [13] = assay: Neurotoxicity against Mus musculus MFI (mouse) assessed as irritability at 50 mg/kg, ip; format: toxicity, organism-based; set-up: dose 50 mg/kg, route intraperitoneal; details: in vivo
# Mus musculus [14] = assay: Neurotoxicity against Mus musculus MFI (mouse) assessed as skeletal muscle incoordination at 50 mg/kg, ip; format: toxicity, organism-based, Muscle tissue; set-up: dose 50 mg/kg, route intraperitoneal; details: in vivo
# Mus musculus [15] = assay: Neurotoxicity against Mus musculus MFI (mouse) assessed as tremors at 135 mg/kg, ip; format: toxicity, organism-based; set-up: dose 135 mg/kg, route intraperitoneal; details: in vivo
# Mus musculus [16] = assay: Neurotoxicity against Mus musculus MFI (mouse) assessed as effect on respiration at 50 mg/kg, ip; format: toxicity, organism-based; set-up: dose 50 mg/kg, route intraperitoneal; details: in vivo
# Mus musculus [17] = assay: Neurotoxicity against Mus musculus MFI (mouse) assessed as excitation at 50 mg/kg, ip; format: toxicity, organism-based; set-up: dose 50 mg/kg, route intraperitoneal; details: in vivo
# Mus musculus [18] = assay: Neurotoxicity against Mus musculus MFI (mouse) assessed as skeletal muscle incoordination at 135 mg/kg, ip; format: toxicity, organism-based, Muscle tissue; set-up: dose 135 mg/kg, route intraperitoneal; details: in vivo
# Mus musculus [19] = assay: […] activity in ip dosed Mus musculus MFI (mouse) assessed as inhibition of PBQ-induced writhing administered 1.5 hr prior to PBQ-challenge measured after 10 min; format: functional; details: read-out: MED
# Mus musculus [20] = assay: Neurotoxicity against Mus musculus MFI (mouse) assessed as eye protrusion at 135 mg/kg, ip; format: toxicity, organism-based; set-up: dose 135 mg/kg, route intraperitoneal; details: in vivo
# Mus musculus [21] = assay: Neurotoxicity against Mus musculus MFI (mouse) assessed as epilepsy at 50 mg/kg, ip; format: toxicity, organism-based; set-up: dose 50 mg/kg, route intraperitoneal; details: in vivo
# Mus musculus [22] = assay: Neurotoxicity against Mus musculus MFI (mouse) assessed as tail erection at 135 mg/kg, ip; format: toxicity, organism-based; set-up: dose 135 mg/kg, route intraperitoneal; details: in vivo
# Mus musculus [23] = assay: Neurotoxicity in ip dosed Mus musculus MFI (mouse); format: toxicity, organism-based; details: in vivo
# Mus musculus [24] = assay: Neurotoxicity against Mus musculus MFI (mouse) assessed as hair erection at 50 mg/kg, ip; format: toxicity, organism-based; set-up: dose 50 mg/kg, route intraperitoneal; details: in vivo
# Mus musculus [25] = assay: Neurotoxicity against Mus musculus MFI (mouse) assessed as irritability at 135 mg/kg, ip; format: toxicity, organism-based; set-up: dose 135 mg/kg, route intraperitoneal; details: in vivo
# Mus musculus [26] = assay: […] activity in Mus musculus MFI (mouse) assessed as inhibition of PBQ-induced writhing at 135 mg/kg, ip administered 1.5 hr prior to PBQ-challenge measured after 10 min relative to aspirin; format: functional; details: route intraperitoneal
# Mus musculus [27] = assay: Neurotoxicity against Mus musculus MFI (mouse) assessed as muscle twitching at 50 mg/kg, ip; format: toxicity, organism-based, Muscle tissue; set-up: dose 50 mg/kg, route intraperitoneal; details: in vivo
# Mus musculus [28] = assay: Neurotoxicity against Mus musculus MFI (mouse) assessed as effect on respiration at 135 mg/kg, ip; format: toxicity, organism-based; set-up: dose 135 mg/kg, route intraperitoneal; details: in vivo
# Mus musculus [29] = assay: Neurotoxicity against Mus musculus MFI (mouse) assessed as tremors at 50 mg/kg, ip; format: toxicity, organism-based; set-up: dose 50 mg/kg, route intraperitoneal; details: in vivo
# Mus musculus [30] = assay: Neurotoxicity against Mus musculus MFI (mouse) assessed as hair erection at 135 mg/kg, ip; format: toxicity, organism-based; set-up: dose 135 mg/kg, route intraperitoneal; details: in vivo
# Mus musculus [31] = assay: Neurotoxicity against Mus musculus MFI (mouse) assessed as epilepsy at 135 mg/kg, ip; format: toxicity, organism-based; set-up: dose 135 mg/kg, route intraperitoneal; details: in vivo
# Mus musculus [32] = assay: Neurotoxicity against Mus musculus MFI (mouse) assessed as excitation at 135 mg/kg, ip; format: toxicity, organism-based; set-up: dose 135 mg/kg, route intraperitoneal; details: in vivo
# Mus musculus [33] = assay: Neurotoxicity against Mus musculus MFI (mouse) assessed as eye protrusion at 50 mg/kg, ip; format: toxicity, organism-based; set-up: dose 50 mg/kg, route intraperitoneal; details: in vivo
# Mus musculus [34] = assay: Neurotoxicity against Mus musculus MFI (mouse) assessed as muscle twitching at 135 mg/kg, ip; format: toxicity, organism-based, Muscle tissue; set-up: dose 135 mg/kg, route intraperitoneal; details: in vivo
# Mus musculus [35] = assay: Neurotoxicity against Mus musculus MFI (mouse) assessed as tail erection at 50 mg/kg, ip; format: toxicity, organism-based; set-up: dose 50 mg/kg, route intraperitoneal; details: in vivo
smiles,measurement,setting,value
CC(CN1CCN(C)CC1)Oc1cccc(Cl)c1Cl.O=C(O)C(=O)O (racemic),Activity,Mus musculus [1],Toxic
same,Activity,Mus musculus [2],Toxic
same,Activity,Mus musculus [3],Toxic
same,Activity,Mus musculus [4],Toxic
same,Activity,Mus musculus [5],Toxic
same,Activity,Mus musculus [6],Toxic
same,inhibition in vivo at 90 mg/kg,Mus musculus [7],85%
same,Activity,Mus musculus [8],Toxic
same,Activity,Mus musculus [9],Toxic
same,Activity,Mus musculus [10],Toxic
same,Activity,Mus musculus [11],Toxic
CC(COc1cc(Cl)ccc1Cl)N1CCN(C)CC1.O=C(O)C(=O)O (racemic),inhibition in vivo at 50 mg/kg,Mus musculus [12],50%
same,Activity,Mus musculus [1],Toxic
same,Activity,Mus musculus [13],Toxic
same,Activity,Mus musculus [2],Toxic
same,Activity,Mus musculus [14],Toxic
same,Activity,Mus musculus [15],Toxic
same,Activity,Mus musculus [3],Toxic
same,Activity,Mus musculus [16],Toxic
same,Activity,Mus musculus [17],Toxic
same,Activity,Mus musculus [4],Toxic
same,Activity,Mus musculus [18],Toxic
same,Activity,Mus musculus [5],Toxic
same,minimal effective dose,Mus musculus [19],60 mg/kg
same,Activity,Mus musculus [20],Toxic
same,Activity,Mus musculus [21],Toxic
same,Activity,Mus musculus [22],Toxic
same,MTC,Mus musculus [23],90 mg/kg
same,Activity,Mus musculus [6],Toxic
same,Activity,Mus musculus [24],Toxic
same,Activity,Mus musculus [25],Toxic
same,inhibition in vivo at 135 mg/kg,Mus musculus [26],100%
same,Activity,Mus musculus [27],Toxic
same,inhibition in vivo at 90 mg/kg,Mus musculus [7],62.5%
same,Activity,Mus musculus [28],Toxic
same,Activity,Mus musculus [29],Toxic
same,Activity,Mus musculus [8],Toxic
same,Activity,Mus musculus [9],Toxic
same,Activity,Mus musculus [10],Toxic
same,Activity,Mus musculus [30],Toxic
same,Activity,Mus musculus [11],Toxic
same,Activity,Mus musculus [31],Toxic
same,Activity,Mus musculus [32],Toxic
same,Activity,Mus musculus [33],Toxic
same,Activity,Mus musculus [34],Toxic
same,Activity,Mus musculus [35],Toxic
